Where a name gives a salt, the structure may show the parent alone.
Columns and labels:
human EP2 receptor [1] = molecular target: T1, human EP2 receptor (Homo sapiens, UniProt P43116); assay: Measurement of EP2 receptor binding affinity ([3H]PGE2 displacement); conditions: read-out: Ki value of EP2 receptor binding affinity
T1 construct: purchased Euroscreen S.A. ES-562-M; host or cells: HEK293 cells
Method: (§1) Measurement of EP2 receptor binding affinity was carried out according to the method of Abramovitz et al. (Biochimica et Biophysica Acta, 1483, 285 (2000)). […] The membrane fraction was recovered on glass fiber filter paper (GF/B, available from Whatman PLC) using a cell harvester […], available from Brandel Inc.), and after washing with a buffer solution (10 mM MES-KOH (pH 6.0), 10 mM MgCl2), radioactivity was measured with a liquid scintillation analyzer (2000CA, available from Packard). […] The dissociation constant (Kd value) was calculated by Scatchard analysis.

human EP2 receptor [2] = molecular target: T1, human EP2 receptor; assay: Measurement of EP2 agonist activity (cAMP amount in cells); assay type: cell-based; conditions: HEK 293 cells expressing human EP2 receptor, cAMP increase, 30 minutes
Method: Measurement of EP2 agonist activity was carried out according to the method of Wilson et al. (European Journal of Pharmacology, 501, 49 (2004)). […] On the next day, the medium was replaced with serum-free MEM medium containing 3-isobutyl-1-methylxanthine (final concentration: 500 μM) and after culturing for 30 minutes, a test compound dissolved in dimethylsulfoxide was added and the medium was allowed to stand in a carbon dioxide gas incubator. After 30 minutes, an amount of cAMP in the cells was measured with a cAMP Biotrak EIA System kit (available from GE Healthcare Bioscience).

human EP1 receptor = molecular target: T2, human EP1 receptor (Homo sapiens, UniProt P34995); assay: Measurement of EP1 receptor binding affinity ([3H]PGE2 displacement); conditions: membrane fraction of Chem-1 cells expressing human EP1 receptor, [3H]PGE2 10 nM
T2 sequence (P34995 1-402): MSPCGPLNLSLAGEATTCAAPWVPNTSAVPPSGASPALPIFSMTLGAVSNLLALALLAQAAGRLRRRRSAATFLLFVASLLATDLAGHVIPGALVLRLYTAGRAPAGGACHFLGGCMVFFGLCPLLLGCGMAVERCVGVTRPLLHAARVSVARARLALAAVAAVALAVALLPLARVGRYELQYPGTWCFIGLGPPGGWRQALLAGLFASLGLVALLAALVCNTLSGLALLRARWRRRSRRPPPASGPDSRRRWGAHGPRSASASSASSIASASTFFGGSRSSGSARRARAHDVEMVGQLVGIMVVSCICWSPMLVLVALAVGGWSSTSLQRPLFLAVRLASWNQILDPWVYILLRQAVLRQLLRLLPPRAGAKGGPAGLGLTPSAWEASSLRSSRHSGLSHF
Method: as §1, with “EP1” for “EP2”, “PLC) pretreated with 0.3% polyethyleneimine by” for “PLC)”

T1 sequence (P43116 whole entry): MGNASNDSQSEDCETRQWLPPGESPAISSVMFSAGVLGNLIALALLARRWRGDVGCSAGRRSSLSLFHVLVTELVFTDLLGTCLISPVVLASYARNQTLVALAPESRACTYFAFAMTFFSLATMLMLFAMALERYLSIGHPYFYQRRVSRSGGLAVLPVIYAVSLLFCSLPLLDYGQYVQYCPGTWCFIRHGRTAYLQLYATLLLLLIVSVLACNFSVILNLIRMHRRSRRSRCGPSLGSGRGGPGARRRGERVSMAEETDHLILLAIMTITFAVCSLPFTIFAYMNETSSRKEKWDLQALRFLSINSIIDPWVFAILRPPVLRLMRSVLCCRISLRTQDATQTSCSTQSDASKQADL

| Ki (human EP2 receptor [1]) [nM] | EC50 (human EP2 receptor [2]) [nM] | SMILES | Ki (human EP1 receptor) [nM] |
| --- | --- | --- | --- |
| 3.4 | 7 | CCC(C)(C)c1ccc(CN(Cc2cccc(NCC(=O)O)n2)S(=O)(=O)c2ccccn2)s1 [Example 4, {6-[(5-tert-Pentylthiophen-2-ylmethyl)(pyridin-2-ylsulfonyl)aminomethyl]pyridin-2-ylamino}acetic acid] | – |
| – | 4.3 | CC(C)(C)c1ccc(CN(Cc2cccc(NCC(=O)O)n2)S(=O)(=O)c2ccccc2)cc1 [Example 21, {6-[(Benzenesulfonyl)(4-tert-butylbenzyl)aminomethyl]pyridin-2-ylamino}acetic acid hydrochloride] | – |
| 6.4 | – | CCCCC(C)(C)c1ccc(CN(Cc2cccc(NCC(=O)O)n2)S(=O)(=O)c2cccs2)cc1 [Example 48, (6-{[4-(1,1-Dimethylpentyl)benzyl](thiophen-2-ylsulfonyl)aminomethyl}pyridin-2-ylamino)acetic acid] | – |
| – | 2.8 | CC(C)(C)c1ccc(CN(Cc2cccc(NCC(=O)O)n2)S(=O)(=O)c2cccnc2)cc1 [Example 35, {6-[(4-tert-Butylbenzyl)(pyridin-3-ylsulfonyl)aminomethyl]pyridin-2-ylamino}acetic acid hydrochloride] | – |
| 3.6 | – | CCCCC(C)(C)c1ccc(CN(Cc2cccc(NCC(=O)O)n2)S(=O)(=O)c2ccncc2)cc1 [Example 43, (6-{[4-(1,1-Dimethylpentyl)benzyl](pyridin-4-ylsulfonyl)aminomethyl}pyridin-2-ylamino)acetic acid] | – |
| 8.6 | 6.1 | CC(C)(C)c1ccc(CN(Cc2cccc(NCC(=O)O)n2)S(=O)(=O)c2cccc(F)c2)cc1 [Example 31, {6-[(4-tert-Butylbenzyl)(3-fluorobenzenesulfonyl)aminomethyl]pyridin-2-ylamino}-acetic acid hydrochloride] | – |
| 5.3 | 2.8 | CCCCC(C)c1ccc(CN(Cc2cccc(NCC(=O)O)n2)S(=O)(=O)c2ccccn2)cc1 (stereo not drawn) [Example 40, (6-{[4-(1-Methylpentyl)benzyl](pyridin-2-ylsulfonyl)aminomethyl}pyridin-2-ylamino)-acetic acid] | – |
| – | 2.6 | CC1(c2ccc(CN(Cc3cccc(NCC(=O)O)n3)S(=O)(=O)c3cccnc3)cc2)CC1 [Example 5, (6-{[4-(1-Methylcyclopropyl)benzyl](pyridin-3-ylsulfonyl)aminomethyl}pyridin-2-ylamino)acetic acid hydrochloride] | – |
| 8.3 | 4.5 | CCC1(c2ccc(CN(Cc3cccc(NCC(=O)O)n3)S(=O)(=O)c3cccnc3)cc2)CC1 [Example 7, (6-{[4-(1-Ethylcyclopropyl)benzyl](pyridin-3-ylsulfonyl)aminomethyl}pyridin-2-ylamino)acetic acid] | – |
| – | 5.5 | CCCCC(C)(C)c1ccc(CN(Cc2cccc(NCC(=O)O)n2)S(=O)(=O)c2cccc(F)c2)cc1 [Example 60, (6-{(3-Fluorobenzenesulfonyl)[4-(1,1-dimethylpentyl)benzyl]aminomethyl}pyridin-2-ylamino)acetic acid] | – |
| – | 5.4 | CCC1(c2ccc(CN(Cc3cccc(NCC(=O)O)n3)S(=O)(=O)c3ccccn3)cc2)CC1 [Example 6, (6-{[4-(1-Ethylcyclopropyl)benzyl](pyridin-2-ylsulfonyl)aminomethyl}pyridin-2-ylamino)acetic acid] | – |
| – | 2.7 | CC(C)(C)c1ccc(CN(Cc2cccc(NCC(=O)O)n2)S(=O)(=O)c2ccccn2)cc1 [Example 23, {6-[(4-tert-Butylbenzyl)(pyridin-2-ylsulfonyl)aminomethyl]pyridin-2-ylamino}acetic acid hydrochloride] | – |
| 2.1 | 7 | CCCCC(C)(C)c1ccc(CN(Cc2cccc(NCC(=O)O)n2)S(=O)(=O)c2ccccn2)c(F)c1 [Example 55, (6-{[2-Fluoro-4-(1,1-dimethylpentyl)benzyl](pyridin-2-ylsulfonyl)aminomethyl}pyridin-2-ylamino)acetic acid] | – |
| 8.3 | 2.7 | CC(C)(C)c1ccc(CN(Cc2cccc(NCC(=O)O)n2)S(=O)(=O)c2ccc(F)cc2)cc1 [Example 30, {6-[(4-tert-Butylbenzyl)(4-fluorobenzenesulfonyl)aminomethyl]pyridin-2-ylamino}-acetic acid hydrochloride] | – |
| 6.1 | 6.3 | CCCCC1(c2ccc(CN(Cc3cccc(NCC(=O)O)n3)S(=O)(=O)c3ccncc3)cc2)CC1 [Example 16, (6-{[4-(1-Butylcyclopropyl)benzyl](pyridin-4-ylsulfonyl)aminomethyl}pyridin-2-ylamino)acetic acid] | – |
| – | 4.5 | CCCC=C(C)c1ccc(CN(Cc2cccc(NCC(=O)O)n2)S(=O)(=O)c2ccccn2)cc1 [Example 24, (6-{[4-(1-Methyl-1-pentenyl)benzyl](pyridin-2-ylsulfonyl)aminomethyl}pyridin-2-ylamino)acetic acid] | – |
| 4.4 | 4.4 | CC(C)(C)c1ccc(CN(Cc2cccc(NCC(=O)O)n2)S(=O)(=O)c2ccc(Cl)cc2)cc1 [Example 33, {6-[(4-tert-Butylbenzyl)(4-chlorobenzenesulfonyl)aminomethyl]pyridin-2-ylamino}-acetic acid hydrochloride] | – |
| – | 5 | CC(C)(C)Cc1ccc(CN(Cc2cccc(NCC(=O)O)n2)S(=O)(=O)c2ccccn2)cc1 [Example 29, {6-[(4-Neopentylbenzyl)(pyridin-2-ylsulfonyl)aminomethyl]pyridin-2-ylamino}acetic acid hydrochloride] | – |
| – | 6.9 | CCC(CC)c1ccc(CN(Cc2cccc(NCC(=O)O)n2)S(=O)(=O)c2cccnc2)cc1 [Example 27, (6-{[4-(1-Ethylpropyl)benzyl](pyridin-3-ylsulfonyl)aminomethyl}pyridin-2-ylamino)-acetic acid] | – |
| – | – | CCCCC[C@H](O)/C=C/[C@H]1[C@H](O)CC(=O)[C@@H]1C/C=C\CCCC(=O)O [PGE2, Prostaglandin E2, reference compound] | 9 |
| – | 8 | CCC1(c2ccc(CN(Cc3cccc(NCC(=O)O)n3)S(=O)(=O)c3ccc(F)cc3)cc2)CC1 [Example 14, (6-{[4-(1-Ethylcyclopropyl)benzyl](4-fluorobenzenesulfonyl)aminomethyl}pyridin-2-ylamino)acetic acid] | – |
| 11 | 4.2 | CCCCC1(c2ccc(CN(Cc3cccc(NCC(=O)O)n3)S(=O)(=O)c3cccnc3)cc2)CC1 [Example 10, 6-{[4-(1-Butylcyclopropyl)benzyl](pyridin-3-ylsulfonyl)aminomethyl}pyridin-2-ylamino)acetic acid hydrochloride] | – |
| 1.8 | 6 | CCCCC(C)(C)c1ccc(CN(Cc2cccc(NCC(=O)O)n2)S(=O)(=O)c2ccc(F)cc2)s1 [Example 3, (6-{(4-Fluorobenzenesulfonyl)[5-(1,1-dimethylpentyl)thiophen-2-ylmethyl]aminomethyl}pyridin-2-ylamino)acetic acid] | – |
| 9.8 | 6.4 | CCC(C)(C)c1ccc(CN(Cc2cccc(NCC(=O)O)n2)S(=O)(=O)c2ccccn2)cc1 [Example 28, {6-[(4-tert-Pentylbenzyl)(pyridin-2-ylsulfonyl)aminomethyl]pyridin-2-ylamino}acetic acid hydrochloride] | – |
| 3.3 | – | CCCCC(C)(C)c1ccc(CN(Cc2cccc(NCC(=O)O)n2)S(=O)(=O)c2cccnc2)cc1 [Example 46, (6-{[4-(1,1-Dimethylpentyl)benzyl](pyridin-3-ylsulfonyl)aminomethyl}pyridin-2-ylamino)acetic acid] | – |
